Laboratory results as given in PubChem BioAssay AID2765 (Broad Institute, 2010).
Active and inactive are the calls of the source.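 The calls were made as follows: active = half-maximal concentration for the rise in caspase light signal at or below ten times the top tested dose; inconclusive = flat fit between 30% and 70% activity, or unreliable curve fit; inactive = the rest.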

These molecules were tested on MEF A1-2A-BIM cells, caspase 3/7 luminescence, 3 h (assay: caspase activation in A1-2A-BIM MEF cells, dose response, A1 inhibitor project, cell-based, luminescence, retest (AID 2765)).

Structure (SMILES) | EC50
Cc1ccc2c(c1)C(=O)C(=O)N2Cc1ccc(Cl)cc1 | > 35 µM (inactive)
NS(=O)(=O)c1ccc(-c2ccc(/C=C3\C(=O)Nc4ccccc43)o2)cc1 | > 35 µM (inactive)
Cc1nccc2c1[nH]c1ccccc12 | > 35 µM (inactive)
O=c1c(Cl)c(Cl)cnn1Cc1ccccc1Cl | > 35 µM (inactive)
CCS(=O)(=O)c1ncc(Cl)c(C(=O)Nc2ccc(S(=O)(=O)N3CCC(C)CC3)cc2)n1 | > 35 µM (inactive)
COCCCN(C(=O)Nc1ccccc1)C(C)c1ccncc1 (stereo not given) | > 35 µM (inactive)
COC(=O)c1ccc(Cl)cc1NC(=O)/C=C/c1ccc(C)o1 | > 35 µM (inactive)
COc1cc(-c2nnc(NC(=O)CCS(=O)(=O)c3ccc(F)cc3)o2)cc(OC)c1OC | > 35 µM (inactive)
O=C1C(=O)N(Cc2ccco2)C(c2cccs2)/C1=C(\O)c1cccc([N+](=O)[O-])c1 (stereo not given) | > 35 µM (inactive)
CCCNC(=O)c1ccc(COc2ccc(Cl)cc2)o1 | > 35 µM (inactive)
O=C(COc1ccc(Cl)cc1)NCc1nnc(SCC(=O)Nc2ccccc2F)o1 | > 35 µM (inactive)
COc1ccc(NC(=O)C(NC(C)=O)C(=O)NCc2ccccc2Cl)cc1 (stereo not given) | > 35 µM (inactive)
CCOC(=O)C(C(=O)OCC)c1cc(Br)c2noc3c2c1C(=O)c1ccccc1-3 | > 35 µM (inactive)
N#Cc1c(C(F)(F)F)cc(-c2ccccc2)nc1SCC(=O)Nc1sc2c(c1C#N)CCC2 | > 35 µM (inactive)
CN(C)C=NC(=O)c1cc(C(=O)c2ccc(Cl)cc2Cl)c[nH]1 | > 35 µM (inactive)
Nc1cn(C2OC(CO)C(O)C2O)c(=O)[nH]c1=O (stereo not given) | > 35 µM (inactive)
O=C(CC1CC2CCC1C2)N1CCN(S(=O)(=O)c2ccccc2C(F)(F)F)CC1 (stereo not given) | > 35 µM (inactive)
CCN(CC(=O)Nc1c(F)cccc1F)C(=O)/C=C/c1ccc(C)cc1 | > 35 µM (inactive)
COc1ccc(CNCc2ccc([N+](=O)[O-])cc2)cc1OC | > 35 µM (inactive)
CC(=O)Nc1ccc(NC(=O)c2cc(C)nn2-c2ccccc2)cc1 | > 35 µM (inactive)
COc1ccccc1NC(=O)c1ccc(S(=O)(=O)N2CCCC2)cc1 | > 35 µM (inactive)
CCc1cc(=O)oc2cc(C)cc(OCC(=O)NC3CCN(Cc4ccccc4)CC3)c12 | > 35 µM (inactive)
CCOc1ccccc1C(=O)N[C@H](C(=O)OCc1cc([N+](=O)[O-])cc2c1OCOC2)C(C)C | > 35 µM (inactive)
COc1ccc(/C=C/C(=O)NC(=S)NCCc2ccc(OC)c(OC)c2)cc1 | > 35 µM (inactive)
c1ccc(Cc2nn3c(Cn4nnc5ccccc54)nnc3s2)cc1 | > 35 µM (inactive)

Structure (SMILES) | EC50
Cc1ccc(-n2nc3c(=O)n(CC(=O)NCCC4=CCCCC4)nc(C)c3c2C)cc1 | > 35 µM (inactive)
Cc1c(Nc2nc3ccccc3nc2NS(=O)(=O)c2cccc(Cl)c2)c(=O)n(-c2ccccc2)n1C | > 35 µM (inactive)
C=CC[N+]1(CC=C)CCOCC1 | > 35 µM (inactive)
CCN(CC)c1ccc(C=NCCc2ccc(S(N)(=O)=O)cc2)cc1 | > 35 µM (inactive)
Nc1nonc1-c1nc2ccccc2n1CC(=O)NC1CCCC1 | > 35 µM (inactive)
CC(=O)Nc1ccc(/C(C)=N/Nc2nc(Nc3ccccc3)nc(N3CCOCC3)n2)cc1 | > 35 µM (inactive)
O=C(NCc1ccccc1)c1cncc(Br)c1 | > 35 µM (inactive)
COc1ccc(S(=O)(=O)N(CC(=O)NCCSc2ccccn2)c2ccccc2)cc1 | > 35 µM (inactive)
N#C/C(=C\c1ccc(OCc2ccccc2)cc1)C(=O)Nc1nc2c(s1)CCN(Cc1ccccc1)C2 | > 35 µM (inactive)
O=C(O)COc1ccccc1/C=C1\C(=O)Nc2ccc(Br)cc21 | > 35 µM (inactive)
CN(CC(=O)Nc1cccc2ccccc12)C(=O)c1ccc(NC(=O)CC#N)cc1 | > 35 µM (inactive)
CC1CCc2c(sc3nc(C(C)(C)C)nc(N4CCN(C(=O)CCl)CC4)c23)C1 (stereo not given) | 15.4 µM
O=C1C(Cc2ccccc2)SC(=Nc2ccccc2)N1c1ccccc1 (stereo not given) | > 35 µM (inactive)
Cc1cccc(NC(=S)NC2CCCC2)c1C | > 35 µM (inactive)
Cc1ccc(C(C(=O)NCc2ccco2)N(C(=O)Cc2cccs2)c2cccnc2)cc1 (stereo not given) | > 35 µM (inactive)
CCCNC(=O)N1[C@H]2CC[C@@H]1C(C(=O)OC)=C(c1c(C)noc1C)C2 | > 35 µM (inactive)
CNC(C)C(=O)NC(C(=O)N1CCCC1C(=O)NC1CCCc2ccccc21)C(C)C (stereo not given) | > 35 µM (inactive)
Cc1cc(NC(=O)CN(C)C)c([N+](=O)[O-])cc1C | > 35 µM (inactive)
COc1cccc(CNC(=O)CN2C(=O)COc3ccc(S(=O)(=O)N4CCCCCC4)cc32)c1 | > 35 µM (inactive)
C=CCOc1c2ccc(C(=O)N(CC)c3ccc(OC)cc3)cc2nn1C | > 35 µM (inactive)
COC(=O)N(NC(=O)C(O)(c1ccccc1)c1ccccc1)c1ccc(C)cc1 | > 35 µM (inactive)
CC(=O)Nc1ccc(NC(=O)C(C)OC(=O)/C=C/c2cn(-c3ccccc3)nc2-c2cccnc2)cc1 (stereo not given) | 17.1 µM
COc1ccc(C(=O)NCc2cccnc2)cc1Br | > 35 µM (inactive)
Cc1ccc(CCNC(=O)c2cc(-c3ccncc3)nc3ccc(S(=O)(=O)N4CCOCC4)cc23)cc1 | > 35 µM (inactive)
O=C(CN1C(=O)c2ccccc2S1(=O)=O)N1CCN(Cc2ccc3c(c2)OCO3)CC1 | > 35 µM (inactive)
